Reference: EPA's ToxRefDB 2

What was measured:
rat [1] = conditions: Sub-acute repeat dose toxicity; Oral; Gavage/Intubation; dose end: 5 day; group: systemic; systemic / in life observation / food consumption / food consumption
rat [2] = conditions: Sub-acute repeat dose toxicity; Oral; Gavage/Intubation; dose end: 4 day; group: systemic; systemic / clinical chemistry / [other] / [other] + systemic / clinical chemistry / 5' nucleotidase / 5' nucleotidase + systemic / clinical …
rat [3] = conditions: Subchronic oral toxicity in rodents, sprague dawley, Gavage/Intubation, dose end: 91 day, group: systemic
rat [4] = conditions: Sub-acute repeat dose toxicity, Oral, Gavage/Intubation, dose end: 12 day, group: systemic
dog = conditions: Subchronic oral toxicity in nonrodent, beagle, Gavage/Intubation, dose end: 93 day
rat [5] = conditions: Sub-acute repeat dose toxicity, Oral, Gavage/Intubation, dose end: 5 day, group: systemic
rat [6] = conditions: Sub-acute repeat dose toxicity, Oral, Gavage/Intubation, dose end: 8 day, group: systemic
rat [7] = conditions: Sub-acute repeat dose toxicity, Oral, Gavage/Intubation, dose end: 14 day, group: systemic
rat [8] = conditions: Subchronic oral toxicity in rodents, fischer, Feed, dose end: 7 week, group: systemic, systemic / in life observation / body weight / body weight
mouse [9] = conditions: Carcinogenicity; b6c3f1; Oral; Feed; dose end: 108 week; group: systemic; systemic / in life observation / body weight / body weight
rat [10] = conditions: Carcinogenicity; fischer; Oral; Feed; dose end: 107 week; group: systemic; systemic / in life observation / body weight / body weight
mouse [11] = conditions: Subchronic oral toxicity in rodents, b6c3f1, Feed, dose end: 7 week, group: systemic, systemic / in life observation / body weight / body weight
[12] = systemic / in life observation / clinical signs / abnormal feces + systemic / in life observation / clinical signs / fur (altered appearance…
[13] = systemic / in life observation / mortality / mortality + systemic / organ weight / testes / absolute + systemic / pathology microscopic / …
[14] = systemic / clinical chemistry / albumin / albumin + systemic / clinical chemistry / globulins / globulins + systemic / clinical chemistry / …
[15] = systemic / hematology / neutrophils / neutrophils + systemic / pathology microscopic / intestine small / inflammation + systemic / pathology…
[16] = group: maternal, reproductive / reproductive performance / estrous cycle / absent corpora lutea
[17] = group: systemic, systemic / organ weight / testes / absolute + systemic / pathology microscopic / testes / degeneration
[18] = group: systemic, systemic / organ weight / testes / absolute + systemic / pathology microscopic / testes / degeneration + systemic / in life observation / …
[19] = systemic / hematology / neutrophils / neutrophils + systemic / pathology microscopic / mesentery / inflammation + systemic / pathology …
[20] = systemic / hematology / neutrophils / neutrophils
[21] = systemic / clinical chemistry / 5' nucleotidase / 5' nucleotidase + systemic / clinical chemistry / glucose / glucose + systemic / clinical …
[22] = systemic / clinical chemistry / potassium / potassium

CCc1nn(C2CCCCC2)c2cc(C3(C#N)CCC(C(=O)O)CC3)ccc12 (configuration not stated)
LEL (rat [1]): 1 mg/kg/day | LOAEL (rat [1]): > 10 mg/kg/day | NEL (rat [1]): < 1 mg/kg/day | NOAEL (rat [1]): ≥ 10 mg/kg/day | LEL (rat [2]): 30 mg/kg/day | LOAEL (rat [2]): > 30 mg/kg/day | NEL (rat [2]): < 30 mg/kg/day | NOAEL (rat [2]): ≥ 30 mg/kg/day | LEL (rat [3]; [12]): 1 mg/kg/day | NEL (rat [3]; [12]): < 1 mg/kg/day | LOAEL (rat [3]; [13]): > 15 mg/kg/day | NOAEL (rat [3]; [13]): ≥ 15 mg/kg/day | LOAEL (rat [4]; [14]): > 30 mg/kg/day | NOAEL (rat [4]; [14]): ≥ 30 mg/kg/day | LEL (rat [4]; [15]): 15 mg/kg/day | NEL (rat [4]; [15]): < 15 mg/kg/day | LEL (dog; [16]): 1 mg/kg/day | LOAEL (dog; [16]): > 10 mg/kg/day | NEL (dog; [16]): < 1 mg/kg/day | NOAEL (dog; [16]): ≥ 10 mg/kg/day | LEL (dog; [17]): 1 mg/kg/day | NEL (dog; [17]): < 1 mg/kg/day | LOAEL (dog; [18]): > 10 mg/kg/day | NOAEL (dog; [18]): ≥ 10 mg/kg/day | LOAEL (rat [5]; [14]): > 30 mg/kg/day | NOAEL (rat [5]; [14]): ≥ 30 mg/kg/day | LEL (rat [5]; [19]): 15 mg/kg/day | NEL (rat [5]; [19]): < 15 mg/kg/day | LOAEL (rat [6]; [14]): > 30 mg/kg/day | NOAEL (rat [6]; [14]): ≥ 30 mg/kg/day | LEL (rat [6]; [20]): 15 mg/kg/day | NEL (rat [6]; [20]): < 15 mg/kg/day | LOAEL (rat [7]; [21]): > 60 mg/kg/day | NOAEL (rat [7]; [21]): ≥ 60 mg/kg/day | LEL (rat [7]; [22]): 3 mg/kg/day | NEL (rat [7]; [22]): < 3 mg/kg/day

CCN(CC)C(=S)SSC(=S)N(CC)CC [Disulfiram]
LEL (rat [8]): 75 mg/kg/day | LOAEL (rat [8]): 75 mg/kg/day | NEL (rat [8]): < 75 mg/kg/day | NOAEL (rat [8]): < 75 mg/kg/day | LEL (mouse [9]): 15 mg/kg/day | LOAEL (mouse [9]): 15 mg/kg/day | NEL (mouse [9]): < 15 mg/kg/day | NOAEL (mouse [9]): < 15 mg/kg/day | LEL (rat [10]): 15 mg/kg/day | LOAEL (rat [10]): > 30 mg/kg/day | NEL (rat [10]): < 15 mg/kg/day | NOAEL (rat [10]): ≥ 30 mg/kg/day | LEL (mouse [11]): 150 mg/kg/day | LOAEL (mouse [11]): 150 mg/kg/day | NEL (mouse [11]): 75 mg/kg/day | NOAEL (mouse [11]): 75 mg/kg/day
